Source: ChEMBL document CHEMBL5236575, “Drug Hunting at the Nexus of Medicinal Chemistry and Chemical Biology and the Discovery of Novel Therapeutic Modalities” (J Med Chem, 2022)
pIC50, pKd: −log10 of the molar value.

Columns and labels:
[1] = biological target: Survival motor neuron protein (Homo sapiens) (UniProt Q16637); assay: Modulation of human SMN2 level in NSC34 cells assessed as fold change by ELISA; format: cell-based
[2] = biological target: T1, von Hippel-Lindau disease tumor suppressor (Homo sapiens, UniProt P40337); assay: Binding affinity to VHL E3 ligase (unknown origin) assessed as dissociation constant by isothermal titration calorimetry assay
[3] = biological target: T1, von Hippel-Lindau disease tumor suppressor; assay: Binding affinity to VHL E3 ligase (unknown origin) by fluorescence polarization (FP) assay

Survival motor neuron protein (Homo sapiens), sequence (Q16637 whole entry): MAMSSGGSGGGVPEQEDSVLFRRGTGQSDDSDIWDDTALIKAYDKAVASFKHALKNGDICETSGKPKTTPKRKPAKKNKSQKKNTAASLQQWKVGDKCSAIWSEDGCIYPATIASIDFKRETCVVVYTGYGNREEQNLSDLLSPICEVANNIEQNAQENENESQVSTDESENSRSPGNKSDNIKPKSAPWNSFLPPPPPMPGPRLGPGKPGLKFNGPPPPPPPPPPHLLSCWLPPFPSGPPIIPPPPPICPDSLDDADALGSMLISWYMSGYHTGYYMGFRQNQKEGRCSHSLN
T1 sequence (P40337 whole entry): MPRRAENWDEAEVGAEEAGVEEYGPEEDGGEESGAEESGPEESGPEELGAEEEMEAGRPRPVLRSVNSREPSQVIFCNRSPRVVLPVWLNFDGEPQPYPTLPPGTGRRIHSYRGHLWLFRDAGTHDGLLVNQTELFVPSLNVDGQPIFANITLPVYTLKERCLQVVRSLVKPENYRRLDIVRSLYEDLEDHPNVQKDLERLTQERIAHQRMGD

| Compound | fold change (FC) ([1]; NSC-34, filed as modulator) | EC1.5 ([1]; NSC-34, filed as modulator) | other results |
| --- | --- | --- | --- |
| CN(c1ccc(-c2ccc(-c3cn[nH]c3)cc2O)nn1)C1CC(C)(C)NC(C)(C)C1 | 3.1 | – | – |
| CCCCC(=O)NCCC(=O)N1CCN(c2ccc3nc(-c4cc(F)c5nc(C)cn5c4)cc(=O)n3c2)CC1 | – | – | EC1.5 ([1]; NSC-34): > 1000 nM |
| CC1(C)CC(Oc2ccc(-c3ccc(-c4cn[nH]c4)cc3O)nn2)CC(C)(C)N1 | 3.6 | – | – |
| Cc1cn2nc(-c3cc(=O)n4cc(N5CCNC6(CC6)C5)ccc4n3)cc(C)c2n1 | – | 4 nM | – |
| CC1(C)CC(Oc2ccc(-c3ccc(-n4cccn4)cc3O)nn2)CC(C)(C)N1 | 3.3 | – | – |
| CCc1nc(C)cn2nc(-c3cc(=O)n4cc(N5CCN(CC)CC5)ccc4n3)cc12 | – | 23 nM | – |
| COC(=O)c1ccc(CNC(=O)[C@@H]2C[C@@H](O)CN2C(=O)CC(C)(C)C)cc1 | – | – | pKd [2]: 4.34; pIC50 [3]: 4.27 |
| CN(c1ccc(-c2ccc(-n3cccn3)cc2O)nn1)C1CC(C)(C)NC(C)(C)C1 | 3.1 | – | – |
| Cc1cn2nc(-c3cc(=O)n4cc(N5CCN(C)CC5)ccc4n3)cc2c(C)n1 | – | 170 nM | – |
| Oc1cc(-n2cccn2)ccc1-c1ccc(OC2CCNCC2(F)F)nn1 (centres undefined) | 1.2 | – | – |
| C=C(CCNC(=O)CCCC)N1CCN(c2ccc3nc(-c4cc(F)c5nc(C)cn5c4)cc(=O)n3c2)CC1 | – | 43 nM | – |
| CCN1CCN(c2ccc3nc(-c4cc5c(C)nc(C)cn5n4)cc(=O)n3c2)CC1 | – | 30 nM | – |
| Cc1cn2cc(-c3cc(=O)n4cc(N5CCN(C)CC5)ccc4n3)cc(F)c2n1 | – | 15 nM | – |
